Source: patent USRE39264E1, “Pharmaceutical combination” (Medivir AB, priority 1996, dated 2006)

Tests used:
[1] = tested on: Human HSV-1 (strain C42 or SC16); experiment: Experiment 3: combination creams of an antiviral and an anti-inflammatory substance in the animal model for recurrent herpes infection; assay type: in vivo, Balb/C mice; details: for ear thickness (% of placebo) / Lesion score (% of placebo): placebo set to 100%
Method: Human HSV-1 (2×10^5 plaque forming units, pfu, strain C42 or SC16) is inoculated into the neck of groups of 10-18 female in-bred Balb/C mice (16-18 g) as described by Kristofferson et al. (“Limited efficacy of inhibitors of herpes simplex virus DNA synthesis in murine models of recrudescent disease”, J. Gen. Virol. 1988; 69:1157-66). The development of zosteriform spread infection is then recorded by daily inspection of the occurrence of lesions on the pinna and swelling of the ear.
The same animal model with ten animals in each group was used.

[2] = tested on: recurrent HSV infections; details: oral formulation, used after the appearance of symptoms; cited from earlier work
[3] = tested on: Human HSV-1 (strain C42 or SC16); experiment: Experiment 1: combination creams of foscarnet and an antiinflammatory substance in the animal model for recurrent herpes infection; assay type: in vivo, Balb/C mice; details: for Compounded value ± s.d., Ear thickness / Compounded value ± s.d., Lesion score: cream day 4-7 after infection three times daily, mean cumulative over days 4-12, 15 and 21, ATI day 2; for Compounded value ± s.d., Lesion score: score scale 0-4; for Ear thickness (% of placebo): cumulative ear thickness; for Ear thickness (% of placebo) / Lesion score (% of placebo): placebo set to 100%; for Lesion score (% of placebo): cumulative lesion score
Method: This transport will take approximately 3-4 days. […] Budesonide and lidocaine were selected for testing as examples of antiinflammatory compounds. The foscarnet cream Foscarnet Cream was prepared as described in Example 1. The cream base without drug was used as placebo. The cream base described above was also mixed with budesonide cream (0.025%, […]-Brocades, The Netherlands) to obtain suitable concentrations for treatment. […] Foscarnet, the two antiinflammatory substances, as well as the two combination creams were tested in the animal model described, with ten animals in each group. The respective cream was applied day 4-7 after infection three times daily.

[4] = tested on: Human HSV-1 (strain C42 or SC16); experiment: Experiment 2: sequential test of foscarnet cream and an antiinflammatory cream in the animal model for recurrent herpes infection
Source text: In the novel animal model, virus is inoculated in the neck of a mouse. The virus will then be transported through the nerves to the skin of the corresponding ear. This transport will take approximately 3-4 days. On day 2 the animals are given immune cells with reactivity against the infecting virus. Subsequently, when the virus arrives at the ear, the animal instantly mobilises an effective immune response against the virus, thus mimicking the clinical situation of a recurrent herpes infection.
The development of zosteriform spread infection is then recorded by daily inspection of the occurrence of lesions on the pinna and swelling of the ear.
The lesions are scored on a scale from 0 to 4 as follows: • 0: no lesions on the ear • 1: isolated zosteriform lesions on the ear • 2: mild ulceration of zosteriform lesions on the ear • 3: moderate ulceration of zosteriform lesions on the ear • 4: severe ulceration of zosteriform lesions on the ear
Swelling of the ear was assessed by measuring the thickness of the ears using an engineers micrometer, as described by Kristofferson et al. The titre of infectious virus in the ear was measured as described by Kristofferson et al, except that BHK (baby hamster kidney) cells were used in addition.
On day 2 after infection the animals are given adoptive transfer of immunity, ATI, against HSV-1 by intravenous injection of 2×10^7 lymph node cells into the tail. Said lymph node cells had been prepared by injecting HSV-1 (10^5 pfu, strain C42 or strain SC16) into the pinna of both ears of anaesthetisized female Balb/C mice (16-18 g). Seven days post infection the animals are sacrificed by cervical dislocation, the draining lymph nodes are removed, and a suspension of lymph node cells in phosphate buffered saline is prepared by means of a micro mesh.
On day 4 after the infection and for 4 days, a composition to be tested as to activity against recurrent herpes is distributed equally in an amount of approximately 25 mg of cream on each side of the ear, every 8 h.
In this experiment the animals were treated with two different formulations 2 hours apart. First the foscarnet cream was applied and 2 hours later the antiinflammatory formulation. This was repeated three times daily during the treatment period (day 4-7 after infection).
The following substances were tested: foscarnet (3%, Foscarnet Cream), budesonide (0.025%, Preferid®, Gist-Brocades, The Netherlands), hydrocortisone (1%, Hydrokortison kräm 1% ACO, Kabi Pharmacia AB, Sweden), lidocaine (5%, Xylocaine®, Astra AB) and ketoprofen (2.5%, Oruvail®, Rhone-Poulenc Rorer NS, Denmark)

[5] = systemic treatment, 50 mg/kg injected intra-peritoneally three times daily
[6] = topical cream three times daily days 4-7 after infection, ATI day 2

| Structure (SMILES) | Mean cumulative value ± s.d., ear thickness [1, 6] | Mean cumulative value ± s.d., lesion score [1, 6] | Lesion score (% of placebo) ([1]; topical cream) | ear thickness (% of placebo) ([1]; topical cream) | Compounded value ± s.d., Ear thickness [3] | Compounded value ± s.d., Lesion score [3] | Ear thickness (% of placebo) [3] | Lesion score (% of placebo) [3] | further results |
| --- | --- | --- | --- | --- | --- | --- | --- | --- | --- |
| Nc1nc2c(ncn2COCCO)c(=O)[nH]1 [Acyclovir] | 3.3 ± 0.3 mm | 8.0 ± 1.3 | 118 % of placebo | 100 % of placebo | – | – | – | – | ear thickness (% of placebo) ([1]; systemic treatment, 50 mg/kg i.p. three times daily): 88 % of placebo; Mean cumulative value ± s.d., ear thickness [1, 5]: 3.0 ± 0.4 mm; Mean cumulative value ± s.d., lesion score [1, 5]: 7.0 ± 1.6; Shortening of healing time [2]: no more than approximately one day |
| CCCC1O[C@@H]2C[C@H]3[C@@H]4CCC5=CC(=O)C=C[C@]5(C)[C@H]4[C@@H](O)C[C@]3(C)[C@]2(C(=O)CO)O1 (stereo partly drawn) [Budesonide] | – | – | – | – | 2.1 ± 0.4 mm | 8.8 ± 1.8 | 58 % of placebo | 96 % of placebo | – |
| O=C(O)P(=O)(O)O [Foscarnet, Trisodium phosphonoformate hexahydrate] | 3.3 ± 0.2 mm | 7.3 ± 1.2 | 107 % of placebo | 98 % of placebo | 3.0 ± 0.4 mm | 7.5 ± 2.5 | 82 % of placebo | 82 % of placebo | Virus titre in the ear ± s.d. on d 7 ([4]; ATI +, day 7 after infection): 3.25 ± 0.49 log10pfu/ml; Ear thickness (% of placebo) ([4]; cumulative ear thickness, placebo set to 100%): 88 % of placebo; Lesion score (% of placebo) ([4]; cumulative lesion score, placebo set to 100%): 84 % of placebo; Reduction of virus titre compared to placebo-treated animals ([4]; day 7 after infection): about tenfold; Mean cumulative value ± s.d., lesion score ([4]; foscarnet cream, 2 hours later antiinflammatory cream, three times daily day 4-7 after infection, ATI day 2): 4.8 ± 2.0; Mean cumulative value ± s.d., Ear thickness ([4]; foscarnet cream, 2 hours later antiinflammatory cream, three times daily day 4-7 after infection, measured as in Experiment 1): 2.8 ± 0.3; Effect on ear thickness ([4]; in comparison to placebo): small reduction; Effect on lesion score ([4]; in comparison to placebo): small reduction |
| C[C@]12CCC(=O)C=C1CC[C@@H]1[C@@H]2[C@@H](O)C[C@@]2(C)[C@H]1CC[C@]2(O)C(=O)CO [Hydrocortisone] | 2.0 ± 0.2 mm | 6.0 ± 1.3 | 88 % of placebo | 61 % of placebo | – | – | – | – | – |
| CCN(CC)CC(=O)Nc1c(C)cccc1C [Lidocaine] | – | – | – | – | 3.6 ± 0.3 mm | 9 ± 2 | 100 % of placebo | 98 % of placebo | Effect on ear thickness / inflammation ([3]; compared to placebo or single creams): no effect |
| O=C(O)Cc1ccccc1Nc1c(Cl)cccc1Cl [diclofenac] | – | – | – | – | – | – | – | – | Side-effects of topical NSAID ([4]; topical gel, probably systemic absorption in too high amounts): toxic side-effects |
| COc1ccc2c(c1)c(CC(=O)O)c(C)n2C(=O)c1ccc(Cl)cc1 [indomethacin] | – | – | – | – | – | – | – | – | Side-effects of topical NSAID ([4]; mouse, in vivo): toxic side-effects |
